Measurements from patent US20250250545A1, “MSCS AND EXTRACELLULAR VESICLES” (EXOSTEM BIOTEC LTD., priority 2021, published 2025).

Tested on: AD-MSCs
Test: MyoD reporter (luciferase) in AD-MSCs, myogenic differentiation
Format: cell-based, human
Conditions: 10^8 EVs per ml, with or without IGF, HGF, PDGF, versus untreated control
Method: The effects of muscle cell derived extracellular vesicles (EVs) on the myogenic differentiation of MSCs was analyzed using a myoD reporter tagged to luciferase. Human satellite cells, myotubes and fibroblasts were grown in culture and EVs were isolated from each. MSCs were isolated from adipose tissue (AD-MSCs) and were transfected with the MyoD reporter. The cells grown in culture were treated with EVs (10^8/ml) for 5 days and the luciferase activity was determined. […] Thus, the vesicles from these two cell types are effective at inducing myogenic differentiation.
Next, EVs were compared to the use of growth factors and the effect of combining EVs with growth factors on myogenic differentiation was tested. The same MyoD reporter was employed and MSCs were cultured with 10^8 EVs (from satellite cells or fibroblasts) per ml of culture media. A no EV control was also performed. The EVs were also added in the presence of three different growth factors, IGF, HGF and PDGF or in the combined presence of all three growth factors. […]
Finally, human primary myotubes were growth in culture and EVs and membrane-bound vesicles (MBVs) were harvested every 3 days. […] The vesicles were added to the culture of MSCs (adipose derived, AD; or chorionic placenta derived, CH) at a concentration of 10^8 per ml of culture and myogenic differentiation was again monitored with a MyoD reporter. […]

| Substance | MyoD reporter activity |
| --- | --- |
| HGF: hepatocyte growth factor | less than a doubling of reporter activity |
| PDGF | less than a doubling of reporter activity |
